Source: patent US20060148752A1, “Method of treating soild tumors and leukemias using combination therapy of vitamin D and anti-metabolic nucleoside analogs” (priority 2004, published 2006)
Entries after “also recorded” stand apart in the source; their conditions may differ.

Columns and labels:
Assay type in all cases: cell-based, human
[1] = system: caspase-8; experiment: Caspase-8 cleavage (Western blot) and activity (colorimetric assay) in capan-1 cells; conditions: vehicle or 0.75 μM calcitriol 24 h, then varying concentrations of gemcitabine
Description: (§1) FIG. 5 is a series of Western blots illustrating the effects of treatment with calcitriol and gemcitabine on caspase pathway induction in capan-1 cells. […] Cell lysates were prepared and analyzed by Western blot for caspase-3, caspase-6, caspase-8, and caspase-9. […] FIGS. 6A-D show quantitation of caspase-3, caspase-6, caspase-8, and caspase-9. Activity of caspase-3 (FIG. 6A), caspase-6 (FIG. 6B), caspase-8 (FIG. 6C), and caspase-9 (FIG. 6D) in capan-1 cells was measured by caspase-family colorimetric substrate assays, according to the manufacturer's protocol. Absorbance at 400 nm was determined, and the caspase activity was expressed as absorbance (ODU) per milligram of protein per reaction. […] Caspase activity was expressed as absorbance (O.D.) per milligram of protein per reaction. For Western blot analysis, capan-1 cells were harvested and lysed in Triton-X100/SDS buffer as described previously ([…] et al., J. Biol. Chem. 276(33):30923-33 (2001), which is hereby incorporated by reference in its entirety). Proteins were transferred to PVDF membrane, and Western blots developed using Renaissance Enhanced Chemiluminescence Reagents (NEN Life Science Products, Boston, Mass.) or SuperSignal (Pierce, Rockford, Ill.).

[2] = system: P-Akt; experiment: Immunoblot of P-Akt expression in capan-1 cells; conditions: vehicle or 0.75 μM calcitriol 24 h, then varying concentrations of gemcitabine 24 h
Description: (§2) FIG. 4 is an immunoblot showing inhibition of survival signaling pathways in capan-1 by treatment with gemcitabine and 1,25D3. Capan-1 cells were treated 24 h with either vehicle or 0.75 μM calcitriol and then were treated with varying concentrations of gemcitabine for another 24 h. Cells were processed for immunoblotting to assess P-ErK1/2 and P-Akt expression. P-Erk1/2 was not affected by either agent alone or by the calcitriol/gemcitabine combination. […] For Western blot analysis, capan-1 cells were harvested and lysed in Triton-X100/SDS buffer as described previously ([…] et al., J. Biol. Chem. 276(33):30923-33 (2001), which is hereby incorporated by reference in its entirety). Proteins were transferred to PVDF membrane, and Western blots developed using Renaissance Enhanced Chemiluminescence Reagents (NEN Life Science Products, Boston, Mass.) or SuperSignal (Pierce, Rockford, Ill.).

[3] = system: caspase-9; experiment: Caspase-9 cleavage (Western blot) and activity (colorimetric assay) in capan-1 cells; conditions: vehicle or 0.75 μM calcitriol 24 h, then varying concentrations of gemcitabine
Description: as §1

[4] = system: P-Erk1/2; experiment: Immunoblot of P-Erk1/2 expression in capan-1 cells; conditions: vehicle or 0.75 μM calcitriol 24 h, then varying concentrations of gemcitabine 24 h
Description: as §2

[5] = system: caspase-6; experiment: Caspase-6 cleavage (Western blot) and activity (colorimetric assay) in capan-1 cells; conditions: vehicle or 0.75 μM calcitriol 24 h, then varying concentrations of gemcitabine
Description: as §1

Structure (SMILES) | caspase-8 cleavage/activation [1] | P-Akt levels [2] | caspase-9 cleavage/activation [3] | P-Erk1/2 expression [4] | caspase-6 cleavage/activation [5]
C=C1/C(=C\C=C2/CCC[C@]3(C)[C@@H]([C@H](C)CCCC(C)(C)O)CC[C@@H]23)C[C@@H](O)C[C@@H]1O [calcitriol, 1,25-dihydroxycholecalciferol] | not cleaved at detectable levels; also recorded: no change | modestly reduced | not cleaved at detectable levels; also recorded: modestly increased | not affected | not cleaved at detectable levels
Nc1ccn([C@@H]2O[C@H](CO)[C@@H](O)C2(F)F)c(=O)n1 [gemcitabine] | increase in the cleaved, activated form | little affected; also recorded: not affected | no significant change; also recorded: modestly increased | not affected | 
